Three molecules from patent US9752168B2, “Compositions comprising a polypeptide having cellulolytic enhancing activity and a quinone compound and uses thereof” (priority 2010, dated 2017) can be followed below.

Where two headings read alike, the source gives them in different places.

The test system of data set [1] is Trichoderma reesei cellulase composition. The note with it: milled unwashed PCS; 5 mM quinone; 1, 3, and 7 days (white bars).
Data set [2] has the same test system. The note with it: milled washed PCS; 10 mM quinone; 1 and 3 days; cellulase 2 mg per g cellulose.
Data set [3] has the same test system. The data set is described as follows: Hydrolysis of AVICEL® (microcrystalline cellulose) by the T. reesei cellulase composition. The note with it: for quinone compound effect(no GH61) (ratio, Equation 2): AVICEL®; for Percent conversion of AVICEL®: no quinone compound, cellulase 4 mg protein/g cellulose, GH61 polypeptide where present 0.4 mg/g cellulose (10% w/w of cellulase).

In data set [4] the test system is Talaromyces stipitatus GH61 polypeptide. It is filed as biochemical. The note with it: T. stipitatus GH61 0.4 or 2 mg per g cellulose.
The target in data set [5] is Aspergillus fumigatus GH61B polypeptide (Aspergillus fumigatus, UniProt Q4WP32). It is filed as biochemical. The note with it: A. fumigatus GH61B 0.4 or 2 mg per ml.
Data set [6] deals with Penicillium pinophilum GH61A polypeptide. The format is biochemical. The note with it: P. pinophilum GH61A 0.4 or 2 mg per ml.
Data set [7] relates to Thielavia terrestris GH61E polypeptide. The format is biochemical. The note with it: AVICEL®, T. terrestris GH61E 0.4 or 2 mg per ml.
The test system of data set [8] is T. reesei cellulase composition. The experiment in a line: Enhancement of microcrystalline cellulose cellulolysis by the T. reesei cellulase composition using combinations of compounds and various GH61 polypeptides. The note with it: mixtures of compounds at 3 mM.
[9] abbreviates: AVICEL®, 5 mM quinone present, days 3 and 7.
Where [10] appears, read: AVICEL®, 5 mM quinone, day 1 and 3.

Regarding `COC1=C(OC)C(=O)C(C)=CC1=O`, the “quinone compound effect(no GH61) (ratio, Equation 2)” value in data set [1] is on record as “greater than 1”; in data set [2] it was “less than 1”; in data set [3] (5 mM quinone, day 3 and 7), “less than 1”; in data set [3] (10 mM quinone, 1 and 3 days) it was “less than 1”.
For `CC1=CC(=O)C=CC1=O` [2-methyl-1,4-benzoquinone], the “Day 7 hydrolysis of AVICEL® in the presence of quinone and GH61 polypeptide” value in data set [4] (5 mM quinone, day 7) was “not significantly impacted”; in data set [5] (5 mM quinone, day 7), “not significantly impacted”; in data set [6] (5 mM quinone, day 7), “not significantly impacted”. In addition, the “GH61 effect (ratio, Equation 4)” value in data set [4] (setting [9]) is given as “greater than 1”; in data set [5] (setting [9]) it was “greater than 1”; in data set [6] (setting [9]), “greater than 1”; in data set [7] (5 mM quinone present, days 3 and 7), “greater than 1”. For the same molecule, the “quinone compound effect(+GH61) (ratio, Equation 3)” value in data set [4] (setting [10]) is reported as “less than 1”; in data set [5] (setting [10]) it was “less than 1”; in data set [6] (setting [10]), “less than 1”; in data set [7] (5 mM quinone, day 7) it was “less than 1”. The “quinone compound effect(no GH61) (ratio, Equation 2)” value in data set [3] (5 mM quinone, 1, 3, and 7 days (white bars)) is reported as “less than 1”.

B1: A. fumigatus GH61B polypeptide: GH61 polypeptide having cellulolytic enhancing activity (SEQ ID NO: 30), recombinantly prepared according to WO 2010/138754 (protein, listed as Aspergillus fumigatus)
chain: MTLSKITSIAGLLASASLVAGHGFVSGIVADGKYYGGYLVNQYPYMSNPPDTIAWSTTATDLGFVDGTGYQSPDIICHRDAKNGKLTATVAAGSQIEFQWTTWPESHHGPLITYLAPCNGDCATVDKTTLKFVKIAAQGLIDGSNPPGVWADDEMIANNNTATVTIPASYAPGNYVLRHEIIALHSAGNLNGAQNYPQCFNIQITGGGSAQGSGTAGTSLYKNTDPGIKFDIYSDLSGGYPIPGPALFNA
B1: in data set [8], the “overall conversion of AVICEL®, comparison among GH61 polypeptides” value is listed as “highest overall conversion”. The “Percent conversion of AVICEL®” value in data set [3] (1 day) is 13.7±0.2%; in data set [3] (3 days), 29±1%; in data set [3] (7 days), 46±2%.
